Source: patent US12697316B2, “Combination therapy with acetyl-leucine and miglustat” (INTRABIO LTD., priority 2019, dated 2026)

How the values were obtained:
[1] = test system: Npc1^−/− mice; experiment: Accelerating Rotarod motor function in Npc1−/− mice; format: in vivo, mouse; settings: Npc1−/− mice treated from 3 weeks, assessed at 8 weeks, vs untreated Npc1−/−
Method: The mice were housed under non-sterile conditions, with food and water available ad libitum.
The weight and activity of each mouse was recorded weekly until reaching the humane endpoint (defined as a loss of 1 g body weight within 24 h). […] Motor function was measured using an accelerating NG Rota Rod for mice (Ugo Basile) starting from 1 rpm to 10 rpm, accelerating every 30 seconds by one rpm.

[2] = test system: Npc1^−/− Chinese Hamster Ovary (CHO) cells; experiment: Lysotracker Green relative lysosomal volume (FACS) in NPC1 null CHO cells; format: cell-based; settings: 1 mM
Method: Wild type and NPC1 null Chinese Hamster Ovary (CHO) cells were kindly provided by Chris Wassif (NIH).
(§1) ADLL and enantiomers (ADLL: Molekula #73891210, ALL: Sigma Aldrich #441511, ADL: Sigma #A0876) were administered as dry admix in powdered mouse diet (PicoLab Rodent Diet 20/5053, LabDiet) at a dose of 0.1 g/kg/day for in vivo studies. Treatment groups for in vivo study consisted of at least 5 mice per group. In vitro studies were conducted with each compound dissolved in PBS to generate a 50 mM stock solution and diluted to a 1 mM working concentration in media (DMEM High Glucose-Gibco #10566016).
Lysotracker Green and Propidium Iodide Staining of CHO cells: In vitro FACS experiments were performed in order to measure relative acidic compartment volume staining live cells with LysoTracker™ Green DND-26 (Thermo Fisher-L7526) at 250 nM for 10 minutes in PBS at RT, centrifuged at 1200 rpm for 10 min and cells resuspended in FACS buffer (PBS, 1% BSA, 0.1% NaN3 sodium azide). Cells were stained with propidium iodide (20 nM) (Invitrogen-P3566) immediately prior to analysis on the FACS for dead cell discrimination. FACS analysis was performed on 10,000 recorded cells using FACS Canto (Becton Dickinson, (BD)) with BD software.

[3] = test system: Npc1^−/− mice; experiment: Lipid storage (GSLs, sphingoid bases) in forebrain and cerebellum of Npc1−/− mice; format: in vivo, mouse; parameters: concentration or dose not given beside the values; settings: Npc1−/− mice treated from 3 weeks, 59 days of age
Method: as §1
Biochemical and immunohistochemical analyses. Mice were saline perfused under terminal anaesthesia. Tissues for biochemical analysis were snap-frozen on ice-cold isopentane. For immunofluorescent staining, tissues were perfused with 4% PFA followed by PBS and kept in 4% PFA for 24h and stored in PBS containing 20% sucrose longer term. Brains were cut parasagitally (20 micron sections) and stored in 30% ethylene glycol, 30% glycerol 0.1 M sodium phosphate buffer (pH 7.4) at −20° C. Biochemical analysis was performed on water-homogenised tissues (50 mg/ml) and protein content was determined using a BCA protein assay (Thermo Fisher #23227) according to the manufacturer's instructions.
Sphingoid Base Measurements: Sphingoid bases (sphingosine and sphinganine) were extracted from 100 uL tissue homogenates in 500 uL of chloroform:methanol (1:2v/v) followed by sonication for 10 minutes at room temperature. Subsequently, 1 M 500-uL sodium chloride, 500 uL chloroform, and 3 M 100 uL sodium hydroxide were added to the samples, and vortexed every five minutes for 15 minutes at room temperature. Homogenates were centrifuged (13,000 g for 10 minutes) and the lower organic phase retained. Sphingoid bases were purified from the samples by pre-equilibrating SPA-NH2 columns with 2×1 mL chloroform followed by sample elution with 3×300 ul acetone. The samples were dried under nitrogen. Lipids were resuspended in 50 uL pre-warmed ethanol (37° C.) and 50 uL OPA labelling solution (1 mg OPA/20 uL Ethanol/1 uL 2-mercaptoethanol; dilution 1:2000 in 3% boric acid pH 10.5) was added. Samples were kept at room temperature in the dark for 20 minutes and vortexed every 10 minutes. Samples were buffered with 100 uL methanol: 5 mM Tris pH 7 (9:1) and centrifuged at 5,000 g for 2 minutes. Supernatants (150 uL) were loaded onto a reverse phase HPLC. Chromatography was carried out using a mobile phase of 85% acetonitrile/15% H2O at a flow rate of 1.0 ml/min. The orthophthaldehyde-labelled derivatives were monitored at an excitation wavelength of 340 nm and an emission wavelength of 450 nm. Quantification of trace peak area was carried out using EZChrom Elite software v3.2.1.
Glycosphingolipid measurements: Glycosphingolipids were extracted and measured by NP-HPLC according to published methods. Tissue homogenates in chloroform/methanol (C:M) (1:2 v/v) overnight at 4° C. The mixture was centrifuged (3000 rpm/10 min) and 1 mL chloroform and 1 mL PBS were added to the supernatant and centrifuged (3000 rpm/10 min). The lower phase was dried under N2, resuspended in 50 uL C:M 1:3 v/v and combined with the upper phase. Subsequently, GSLs were recovered using C18 Isolute columns (100 mg) (Biotage) pre-equilibrated with 4×1 mL MeOH and 2×1 mL H2O. Samples were washed 3×1 mL H2O and eluted with 1 mL C:M 98:2, 2×1 mL C:M 1:3, 1 mL MeOH. The column eluate was dried under N2, resuspended in 100 uL C:M 2:1, dried again under N2 and resuspended in ceramide glycanase (CGase) buffer (50 mM sodium acetate pH 5.5, 1 mg/mL sodium taurodeoxycholate). 50 mU CGase was added, and samples incubated at 37° C. overnight. Released oligosaccharides were anthranilic acid (2-AA) labelled and purified by mixing with 1 mL Acetonitrile: H2O 97:3 and added to Discovery DPA-6S columns (SUPELCO, # 52625-U) pre-equilibrated with 1 mL acetonitrile, 2×1 mL H2O, and 2×1 mL acetonitrile. Columns were washed with 2×1 mL Acetonitrile: H2O 95:5 v/v, and eluted in 2×0.75 mL H2O. […]

CC(=O)N[C@H](CC(C)C)C(=O)O [ADL, N-acetyl-D-leucine]
Rotarod performance [1]: no significant benefit | reduction of relative lysosomal volume ([2]; 72 h): 22.3% | reduction of sphinganine in cerebellum [3]: 42.3% | reduction of sphinganine levels in forebrain [3]: 18.2%

CC(=O)NC(CC(C)C)C(=O)O (racemic) [ADLL, N-acetyl-DL-leucine]
Rotarod performance [1]: significant improvement | reduction of relative lysosomal volume ([2]; 24 h): 16.9% | reduction of relative lysosomal volume ([2]; 72 h): 24% | reduction of GA2 in cerebellum [3]: 21.3% | reduction of sphinganine levels in forebrain [3]: 13.5%

CC(=O)N[C@@H](CC(C)C)C(=O)O [ALL, N-acetyl-L-leucine]
Rotarod performance [1]: significant improvement | reduction of relative lysosomal volume ([2]; 24 h): 16% | reduction of relative lysosomal volume ([2]; 72 h): 22.8% | reduction of GA1 in cerebellum [3]: 23.5% | reduction of GA2 in cerebellum [3]: 23.8% | reduction of GM1a in forebrain [3]: 20.1% | reduction of GM2 in forebrain [3]: 19.6%
